Reference: US11130769B2 (Prelude Therapeutics Incorporated, priority 2018, dated 2021)
Where two headings read alike, the source gives them in different places.

Assays:
MCL-1 = MCL-1 (Homo sapiens (Human), UniProt Q07820); assay: Cell free Mcl-1:Bim affinity assay (fluorescence polarization competition); assay type: binding; conditions: 15 nM MCL-1, 5 nM FITC-Bim, 1 hour at room temperature, read-out: BIM_Ki
In short: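 Fluorescence polarization competition: 10-point 3-fold compound dilutions displaced 5 nM FITC-Bim from 15 nM MCL-1 over 1 h at room temperature. Ki was derived from the fitted IC50 using the Nikolovska-Coleska equation, with percent inhibition normalized to DMSO and positive controls.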

H929 cells = assay: Cell viability assay (H929 10 FBS); assay type: cell-based; conditions: Homo sapiens, NCI-H929, 24 hours, read-out: H929_10FBS IC50
In short: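 ATP-based luminescence (CellTiter-Glo or ATPlite 1 Step, 30-60 min at RT) gauged viability of H929 myeloma cells after 24 h compound treatment at 37 °C. Cells plated at 4000 per well in 10% FBS RPMI 1640 supplemented with pyruvate, HEPES and glucose.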

MCL-1, sequence (Q07820 whole entry): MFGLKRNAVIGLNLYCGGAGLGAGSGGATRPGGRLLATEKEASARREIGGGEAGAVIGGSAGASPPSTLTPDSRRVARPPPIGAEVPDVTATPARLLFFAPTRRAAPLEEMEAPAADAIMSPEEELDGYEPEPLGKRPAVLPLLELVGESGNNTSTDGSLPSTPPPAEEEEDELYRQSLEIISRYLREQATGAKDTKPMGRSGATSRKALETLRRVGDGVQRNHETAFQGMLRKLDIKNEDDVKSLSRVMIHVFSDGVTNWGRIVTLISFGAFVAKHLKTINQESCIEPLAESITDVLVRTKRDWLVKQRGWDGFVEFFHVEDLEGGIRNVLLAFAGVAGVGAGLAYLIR

| Compound | Ki (MCL-1; class symbols) | IC50 (H929 cells) | Ki (MCL-1; numeric values) |
| --- | --- | --- | --- |
| CC1(C)OC/C=C/[C@H](OCCN2CCOCC2)[C@@H]2CC[C@H]2CN2C[C@@]3(CCCc4cc(Cl)ccc43)COc3ccc(cc32)S(=O)(=O)NC1=O [Example 270, (3R,6R,7S,8E,22S)-6′-Chloro-12,12-dimethyl-7-(2-morpholinoethoxy)-15,15-dioxo-spiro[11,20-dioxa-15-thia-1,14-diazatetracyclo[14.7.2.03,6.019,24]pentacosa-8,16,18,24-tetraene-22,1′-tetralin]-13-one] | < 0.001 µM | < 0.5 µM |  |
| CC(=O)NS(=O)(=O)c1ccc2c(c1)N(Cc1ccccc1)CC1(CCCc3cc(Cl)ccc31)CO2 (stereo not drawn) [Example 4, N-(5-Benzyl-6′-chloro-spiro[2,4-dihydro-1,5-benzoxazepine-3,1′-tetralin]-7-yl)sulfonylacetamide] |  | > 1 µM | 0.207 µM |
| O=C1Cc2cccc(c2)SC[C@@H]2CCC2CN2CC3(CCCc4cc(Cl)ccc43)COc3ccc(cc32)S(=O)(=O)N1 (stereo partly drawn) [Example 25, (1S,1′R,2′R)-6-Chloro-3,4-dihydro-2H-spiro[naphthalene-1,3′-5,10-dithia-9-aza-1(5,7)-benzo[b][1,4]oxazepina-6(1,3)-benzena-3(1,2)-cyclobutanacyclodecaphan]-8′-one 10′,10′-dioxide] |  | > 1 µM | 0.009 µM |
| COCCN1CCCN(C(=O)O[C@H]2/C=C/COC(C)(C)C(=O)NS(=O)(=O)c3ccc4c(c3)N(C[C@@H]3CC[C@H]32)C[C@@]2(CCCc3cc(Cl)ccc32)CO4)CC1 [Example 60, [(3R,6R,7S,8E,22S)-6′-Chloro-12,12-dimethyl-13,15,15-trioxo-spiro[11,20-dioxa-15-thia-1,14-diazatetracyclo[14.7.2.03,6.019,24]pentacosa-8,16,18,24-tetraene-22,1′-tetralin]-7-yl] 4-(2-methoxyethyl)-1,4-diazepane-1-carboxylate] | < 0.001 µM | < 0.5 µM |  |
| CN(C(=O)O[C@H]1/C=C/COC2(CCC2)C(=O)NS(=O)(=O)c2ccc3c(c2)N(C[C@@H]2CC[C@H]21)C[C@@]1(CCCc2cc(Cl)ccc21)CO3)[C@@H]1CCOC1 [Example 234, [(3R,6R,7S,8E,22S)-6′-Chloro-12,12-(1,3-propylene)-13,15,15-trioxo-spiro[11,20-dioxa-15-thia-1,14-diazatetracyclo[14.7.2.03,6.019,24]pentacosa-8,16,18,24-tetraene-22,1′-tetralin]-7-yl] N-methyl-N-[(3R)-tetrahydrofuran-3-yl]carbamate] | < 0.001 µM | < 0.5 µM |  |
| CN1CC[C@H](NC(=O)O[C@H]2/C=C/COC(C)(C)C(=O)NS(=O)(=O)c3ccc4c(c3)N(C[C@@H]3CC[C@H]32)C[C@@]2(CCCc3cc(Cl)ccc32)CO4)C1 [Example 151, [(3R,6R,7S,8E,22S)-6′-Chloro-12,12-dimethyl-13,15,15-triox-spiro[11,20-dioxa-15-thia-1,14-diazatetracyclo[14.7.2.03,6.019,24]pentacosa-8,16,18,24-tetraene-22,1′-tetralin]-7-yl] N-[(3S)-1-methylpyrrolidin-3-yl]carbamate] | < 0.001 µM | < 0.5 µM |  |
| CC1(C)OC/C=C/[C@H](OC(=O)N2CCOCC2)[C@@H]2CC[C@H]2CN2C[C@@]3(CCCc4cc(Cl)ccc43)COc3ccc(cc32)S(=O)(=O)NC1=O [Example 172, [(3R,6R,7S,8E,22S)-6′-Chloro-12,12-dimethyl-13,15,15-trioxo-spiro[11,20-dioxa-15-thia-1,14-diazatetracyclo[14.7.2.03,6.019,24]pentacosa-8,16,18,24-tetraene-22,1′-tetralin]-7-yl]morpholine-4-carboxylate] | < 0.001 µM | < 0.5 µM |  |
| CN(C)CCN(C)C(=O)O[C@H]1/C=C/COC2(CCC2)C(=O)NS(=O)(=O)c2ccc3c(c2)N(C[C@@H]2CC[C@H]21)C[C@@]1(CCCc2cc(Cl)ccc21)CO3 [Example 233, [(3R,6R,7S,8E,22S)-6′-Chloro-12,12-(1,3-propylene)-13,15,15-trioxo-spiro[11,20-dioxa-15-thia-1,14-diazatetracyclo[14.7.2.03,6.019,24]pentacosa-8,16(25),17,19(24)-tetraene-22,1′-tetralin]-7-yl] N-[2-(dimethylamino)ethyl]-N-methyl-carbamate] | < 0.001 µM | < 0.5 µM |  |
| CN(C)C(=O)O[C@@H]1/C=C/COC(C)(C)C(=O)NS(=O)(=O)c2ccc3c(c2)N(C[C@@H]2CC[C@H]21)C[C@@]1(CCCc2cc(Cl)ccc21)CO3 [Example 37, [(3R,6R,7R,8E,22S)-6′-Chloro-12,12-dimethyl-13,15,15-trioxo-spiro[11,20-dioxa-15-thia-1,14-diazatetracyclo[14.7.2.03,6.019,24]pentacosa-8,16,18,24-tetraene-22,1′-tetralin]-7-yl] N,N-dimethylcarbamate] | < 0.001 µM | < 0.5 µM |  |
| CO[C@@H]1/C=C/CN(C)[C@@H](C(C)C)C(=O)NS(=O)(=O)c2ccc3c(c2)N(C[C@@H]2CC[C@H]21)C[C@@]1(CCCc2cc(Cl)ccc21)CO3 [Example 129, (3R,6R,7R,8E,12S,22S)-6′-Chloro-7-methoxy-11-methyl-12-isopropyl-15,15-dioxo-spiro[20-oxa-15-thia-1,11,14-triazatetracyclo[14.7.2.03,6.019,24]pentacosa-8,16,18,24-tetraene-22,1′-tetralin]-13-one] | 0.001 to 0.1 µM | > 1 µM |  |
| C[C@@H]1C(=O)NS(=O)(=O)c2ccc3c(c2)N(C[C@@H]2CC[C@H]2[C@@H](OC(=O)N(C)C)/C=C/CN1C)C[C@@]1(CCCc2cc(Cl)ccc21)CO3 [Example 145, [(3R,6R,7S,8E,12R,22S)-6′-Chloro-11,12-dimethyl-13,15,15-trioxo-spiro[20-oxa-15-thia-1,11,14-triazatetracyclo[14.7.2.03,6.019,24]pentacosa-8,16,18,24-tetraene-22,1′-tetralin]-7-yl] N,N-dimethylcarbamate] | < 0.001 µM | < 0.5 µM |  |
| CC(=O)N(C)[C@H]1/C=C/COC(C)(C)C(=O)NS(=O)(=O)c2ccc3c(c2)N(C[C@@H]2CC[C@H]21)C[C@@]1(CCCc2cc(Cl)ccc21)CO3 [Example 255, N-Methyl-N-[(3R,6R,7S,8E,22S)-6′-chloro-12,12-dimethyl-13,15,15-trioxo-spiro[11,20-dioxa-15-thia-1,14-diazatetracyclo[14.7.2.03,6.019,24]pentacosa-8,16(25),17,19(24)-tetraene-22,1′-tetralin]-7-yl]acetamide] | 0.001 to 0.1 µM | > 1 µM |  |
| CC(C)(C)OC(=O)N1CCC(C(=O)NS(=O)(=O)c2ccc3c(c2)N(CC2CCC2)CC2(CCCc4cc(Cl)ccc42)CO3)CC1 (stereo not drawn) [Example 21, tert-Butyl 4-[[6′-chloro-5-(cyclobutylmethyl)spiro[2,4-dihydro-1,5-benzoxazepine-3,1′-tetralin]-7-yl]sulfonylcarbamoyl]piperidine-1-carboxylate] |  | > 1 µM | 0.0533 µM |
| COC(=O)N1C/C=C/[C@@H](OC)[C@@H]2CC[C@H]2CN2C[C@@]3(CCCc4cc(Cl)ccc43)COc3ccc(cc32)S(=O)(=O)NC(=O)C2(CCC2)C1 [Example 67, (3R,6R,7R,8E,23S)-6′-Chloro-7-methoxy-11-methoxycarbonyl-13,13-(1,3-propylene)-16,16-dioxo-spiro[21-oxa-16-thia-1,11,15-triazatetracyclo[15.7.2.03,6.020,25]hexacosa[8,17(26),18,20(25)]tetraene-23,1′-tetralin]-14-one] | 0.001 to 0.1 µM | > 1 µM |  |
| O=C1Cc2cccc(c2)S(=O)(=O)C[C@@H]2CC[C@H]2CN2C[C@@]3(CCCc4cc(Cl)ccc43)COc3ccc(cc32)S(=O)(=O)N1 [Example 98, (3R,6R,24S)-6′-Chloro-8,8,17,17-tetraoxo-spiro[22-oxa-8,17-dithia-1,16-diazapentacyclo[16.7.2.19,13.03,6.021,26]octacosa-9(28),10,12,18(27),19,21(26)-hexaene-24,1′-tetralin]-15-one] | 0.001 to 0.1 µM | > 1 µM |  |
| CO[C@H]1/C=C/CC[C@@H](C)C(=O)NS(=O)(=O)c2ccc3c(c2)N(C[C@@H]2CC[C@H]21)C[C@@]1(CCCc2cc(Cl)ccc21)CO3 [Example 81, (3R,6R,7S,8E,12R,22S)-6′-Chloro-7-methoxy-12-methyl-15,15-dioxo-spiro[20-oxa-15-thia-1,14-diazatetracyclo[14.7.2.03,6.019,24]pentacosa-8,16(25),17,19(24)-tetraene-22,1′-tetralin]-13-one] | 0.001 to 0.1 µM | > 1 µM |  |
| CC1(C)OC/C=C/[C@H](OC(=O)N2CCN(C3COC3)CC2)[C@@H]2CC[C@H]2CN2C[C@@]3(CCCc4cc(Cl)ccc43)COc3ccc(cc32)S(=O)(=O)NC1=O [Example 187, [(3R,6R,7S,8E,22S)-6′-Chloro-12,12-dimethyl-13,15,15-trioxo-spiro[11,20-dioxa-15-thia-1,14-diazatetracyclo[14.7.2.03,6.019,24]pentacosa-8,16,18,24-tetraene-22,1′-tetralin]-7-yl] 4-(oxetan-3-yl)piperazine-1-carboxylate] | < 0.001 µM | < 0.5 µM |  |
| CC1(C)OC/C=C/[C@H](OC(=O)N2CCC2)[C@@H]2CC[C@H]2CN2C[C@@]3(CCCc4cc(Cl)ccc43)COc3ccc(cc32)S(=O)(=O)NC1=O [Example 174, [(3R,6R,7S,8E,22S)-6′-Chloro-12,12-dimethyl-13,15,15-trioxo-spiro[11,20-dioxa-15-thia-1,14-diazatetracyclo[14.7.2.03,6.019,24]pentacosa-8,16,18,24-tetraene-22,1′-tetralin]-7-yl] azetidine-1-carboxylate] | < 0.001 µM | < 0.5 µM |  |
